Test results as given in patent US8338431B2, “Phosphodiesterase inhibitors” (Leo Pharma A/S, priority 2007, dated 2012).

Legend:
[1] = biological target: Human recombinant PDE4 (Genbank accession no NM—006203) (Homo sapiens, UniProt Q08499); assay: PDE4 Assay (SPA, cleavage of cAMP); assay type: biochemical; conditions: human recombinant PDE4, 1 hour incubation, cAMP 1×10^-5M, test compound up to 10 μM; read-out: IC50 (PDE4)
Procedure: Human recombinant PDE4 (Genbank accession no NM_006203) was incubated for 1 hour, with the test compound at concentrations up to 10 μM, with cAMP (1×10^-5M), and with a low amount (0.021 MBq) of radioactively labelled cAMP. At the end of the incubation, the cleavage of the substrate was evaluated by the binding of the AMP product to SPA beads, which generate […] when bound to the radioactive tracer. The AMP product inhibited the binding of the radioactive tracer to the beads, and the luminescent signal was competed. The results were calculated as the molar concentrations resulting in 50% inhibition of the substrate cleavage compared to controls samples, and are expressed as IC50 (M).

[2] = test system: TNF-α release from human peripheral blood mononuclear cells (PBMC); assay: TNF-α Release in LPS stimulated PBMC; assay type: cell-based; conditions: 30 minutes pre-incubation, stimulated 18 hours with lipopolysaccharide, TNF-α in supernatant by enzyme immunoassay
Procedure: Human peripheral blood mononuclear cells (PBMC) were isolated from buffy coats. The blood is mixed with saline at a ratio of 1:1, and the PBMC were isolated using Lymphoprep Tubes™ (Nycomed, Norway). The PBMC were suspended in RPMI1640 with 2% foetal calf serum (FCS), pen/strep and 2 mM L-glutamine at a concentration of […]. The cells were pre-incubated for 30 minutes with the test compounds in 96 well tissue culture plates and stimulated for 18 hours with lipopolysaccharide […] (Sigma). The level of TNF-α was measured in the culture supernatant by enzyme immunoassays using primary and secondary biotinylated antibodies from R&D systems. Results are expressed as IC50 values calculated from inhibition curves using as positive controls the secretion in LPS stimulated wells and as negative controls the secretion in unstimulated cells.

Sequence of Human recombinant PDE4 (Genbank accession no NM—006203) (Q08499 1-673 isoform Q08499-2): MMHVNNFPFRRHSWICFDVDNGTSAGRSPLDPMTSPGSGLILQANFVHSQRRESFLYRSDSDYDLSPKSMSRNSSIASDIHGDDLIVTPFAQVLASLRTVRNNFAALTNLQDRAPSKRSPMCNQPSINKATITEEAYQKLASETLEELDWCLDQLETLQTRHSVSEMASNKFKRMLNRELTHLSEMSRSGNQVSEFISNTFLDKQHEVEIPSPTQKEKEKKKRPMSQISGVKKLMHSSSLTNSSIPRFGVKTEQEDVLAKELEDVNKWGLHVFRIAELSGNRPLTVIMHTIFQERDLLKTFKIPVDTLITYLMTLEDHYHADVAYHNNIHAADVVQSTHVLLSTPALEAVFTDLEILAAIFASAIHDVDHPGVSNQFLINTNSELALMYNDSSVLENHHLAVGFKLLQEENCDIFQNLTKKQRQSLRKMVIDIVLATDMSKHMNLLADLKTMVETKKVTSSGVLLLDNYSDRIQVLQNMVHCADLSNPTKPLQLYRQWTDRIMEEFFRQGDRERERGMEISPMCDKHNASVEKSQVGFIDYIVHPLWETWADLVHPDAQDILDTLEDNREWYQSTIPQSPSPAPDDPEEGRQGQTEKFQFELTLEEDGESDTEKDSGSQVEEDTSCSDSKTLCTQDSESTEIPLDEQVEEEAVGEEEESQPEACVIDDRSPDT

SMILES	IC50 [1] [nM]	IC50 [2] [nM]
COc1ccc(C(=O)Cc2c(Cl)c[n+]([O-])cc2Cl)c2c1OC1(CCOCC1)O2 [Compound 103, 2-(3,5-Dichloro-1-oxido-pyridine-4-yl)-1-(7-methoxy-2′,5′,6′-tetrahydro-spiro[1,3-benzodioxole-2,4′-(4H)-pyran]-4-yl)ethanone]	26	23
COc1ccc(C(=O)Cc2c(Cl)cncc2Cl)c2c1OC1(CCS(=O)(=O)CC1)O2 [Compound 112, 2-(3,5-Dichloropyridine-4-yl)-1-(7-methoxy-2′,3′,5′,6′-tetrahydro-spiro[1,3-benzodioxole-2,4′-(4H)-thiopyran-1,1′-dioxide]-4-yl)ethanone]	29	34
